{"source": "patent US20170143009A1", "about": "“ANIMAL FEED AND AQUAFEED” (DUPONT NUTRITION BIOSCIENCES APS, priority 2014, published 2017)", "key": {"Pacific white shrimp": {"test_system": "Pacific white shrimp", "test": "8-week feeding trial, growth performance and feed utilisation", "format": "in vivo, Litopennaeus vannamei", "conditions": "8 weeks; for Final individual body weight gain: 5 replicates", "experimental": "The feeding experiment (8 weeks) on Pacific white shrimp was conducted at the shrimp farm facilities of Prince of Songkhla University, Pattani Campus in Thailand. The shrimp rearing unit was made up of fiberglass aquarium of 235 L. The parameters to assess the water quality i.e. salinity, dissolved oxygen (DO), temperature and pH were measured daily using standard protocols. There was a weekly monitoring of NH3 and NO2. Siphoning of left-over feed and faeces and exchange of 10% of water was done daily.\nPacific white leg shrimp (Litopennaeus vannamei) were obtained from a standard farm in Pattani province. Shrimp were acclimatized in a concrete pond for 7 days prior to the start of the experiment. It was ensured that the juveniles were not infested with bacteria, parasites and viruses. […] They were sorted and allotted randomly for a particular feed group. 30 shrimps were introduced into each of the 235 L fibreglass aquarium (5 aquariums per feed group). It was confirmed that there was no significant difference in the initial weights of the groups. They were grown in the system for 8 weeks.\nExperimental shrimp feeds were used.\nIn the present study, positive control was based on 9% fish meal whereas negative control with or without betaine products) was based on 4% fish meal as indicated in the feed formulation in table 2.\nThe experimental feeds were hand fed everyday; four times a day. Feed consumption as well as amount of unconsumed feed were monitored (weighed) daily.\nDaily feed was based on feed guide x number of surviving animals, and was predetermined one week in advance, but was adjusted on a daily basis if significant amount of feed remained non eaten or if all feed was consumed, in order to avoid underfeeding or overfeeding. The animals were weighed every 2 weeks—all animals in each of the aquaria were weighed.\nThe bulk weights of shrimp were recorded from each experimental unit at the start of the feeding period. Weight measurement was examined every two weeks by sampling 10% of white shrimp in each net cage (at week 2, 4, 6, and 8). At the end of the study (8 weeks), all shrimp in each net cage were weighed. The number of survivors was also checked. The determination of weight gain was based on the total biomass in each net cage considering the number of survivors.\nSurvival (%)=100 (Final shrimp number/Initial shrimp number)\nWeight gain, WG (%)=[[(Mean final bodyweight)−(Mean initial body weight)]/Mean initial body weight]×100.\nRate of feed intake (%/BW/day)=Feed intake (g)×100/[((mean final BW+mean initial BW)/2)×((number of final shrimp+number of initial shrimp)/2)×time (days)].\nFeed conversion ratio, FCR=Dry feed intake (g)/[Final biomass (g)−Initial biomass (g)+Biomass of the dead shrimp (g)]."}, "[1]": {"conditions": "pure form; water and lower alcohols; cited from earlier work"}, "[2]": {"conditions": "NC feed (4% fish meal) + 0.5% uncoated betaine"}, "[3]": {"conditions": "NC feed (4% fish meal) + 1% uncoated betaine"}}}
{"smiles": "C[N+](C)(C)CC(=O)[O-]", "note": "[Uncoated Betafin, trimethylglycine]", "values": [{"measurement": "Final individual body weight gain", "setting": "Pacific white shrimp; NC feed (4% fish meal) + 0.5% uncoated betaine (5 kg/tonne of feed)", "result": "5.58 ± 0.29", "unit": "ab g/shrimp"}, {"measurement": "FCR (feed conversion ratio)", "setting": "Pacific white shrimp; [2]", "result": "1.83 ± 0.09", "unit": "a"}, {"measurement": "Feed intake", "setting": "Pacific white shrimp; [2]", "result": "7.60 ± 0.51", "unit": "b"}, {"measurement": "Survival", "setting": "Pacific white shrimp; [2]", "result": "95.8 ± 4.2", "unit": "abcd %"}, {"measurement": "Final individual body weight gain", "setting": "Pacific white shrimp; NC feed (4% fish meal) + 1% uncoated betaine (10 kg/tonne of feed)", "result": "6.06 ± 0.82", "unit": "a g/shrimp"}, {"measurement": "FCR (feed conversion ratio)", "setting": "Pacific white shrimp; [3]", "result": "1.85 ± 0.21", "unit": "a"}, {"measurement": "Feed intake", "setting": "Pacific white shrimp; [3]", "result": "8.46 ± 0.48", "unit": "a"}, {"measurement": "Survival", "setting": "Pacific white shrimp; [3]", "result": "95.0 ± 3.3", "unit": "abcd %"}, {"measurement": "Feed intake", "setting": "Pacific white shrimp; NC feed (4% fish meal) + 1% uncoated betaine, listed as betaine", "result": "significantly higher than positive control"}, {"measurement": "Solubility", "setting": "[1]", "result": "readily soluble in water and lower alcohols"}]}
